Measured values reported in US20150274657A1, “PYRROLIDINES” (MERCK PATENT GMBH, priority 2012, published 2015).
pIC50: −log10 of the molar value. Where two headings read alike, the source gives them in different places.

Columns and labels:
[1] = molecular target: T1, human Nav1.6 ion channels (Homo sapiens, UniProt Q9UQD0); assay: IonWorks electrophysiological assay on CHO cells expressing human Nav1.6; type: cell-based; conditions: CHO human Nav1.6 expressing cells
T1 construct: host or cells: CHO
T1 sequence (Q9UQD0 whole entry): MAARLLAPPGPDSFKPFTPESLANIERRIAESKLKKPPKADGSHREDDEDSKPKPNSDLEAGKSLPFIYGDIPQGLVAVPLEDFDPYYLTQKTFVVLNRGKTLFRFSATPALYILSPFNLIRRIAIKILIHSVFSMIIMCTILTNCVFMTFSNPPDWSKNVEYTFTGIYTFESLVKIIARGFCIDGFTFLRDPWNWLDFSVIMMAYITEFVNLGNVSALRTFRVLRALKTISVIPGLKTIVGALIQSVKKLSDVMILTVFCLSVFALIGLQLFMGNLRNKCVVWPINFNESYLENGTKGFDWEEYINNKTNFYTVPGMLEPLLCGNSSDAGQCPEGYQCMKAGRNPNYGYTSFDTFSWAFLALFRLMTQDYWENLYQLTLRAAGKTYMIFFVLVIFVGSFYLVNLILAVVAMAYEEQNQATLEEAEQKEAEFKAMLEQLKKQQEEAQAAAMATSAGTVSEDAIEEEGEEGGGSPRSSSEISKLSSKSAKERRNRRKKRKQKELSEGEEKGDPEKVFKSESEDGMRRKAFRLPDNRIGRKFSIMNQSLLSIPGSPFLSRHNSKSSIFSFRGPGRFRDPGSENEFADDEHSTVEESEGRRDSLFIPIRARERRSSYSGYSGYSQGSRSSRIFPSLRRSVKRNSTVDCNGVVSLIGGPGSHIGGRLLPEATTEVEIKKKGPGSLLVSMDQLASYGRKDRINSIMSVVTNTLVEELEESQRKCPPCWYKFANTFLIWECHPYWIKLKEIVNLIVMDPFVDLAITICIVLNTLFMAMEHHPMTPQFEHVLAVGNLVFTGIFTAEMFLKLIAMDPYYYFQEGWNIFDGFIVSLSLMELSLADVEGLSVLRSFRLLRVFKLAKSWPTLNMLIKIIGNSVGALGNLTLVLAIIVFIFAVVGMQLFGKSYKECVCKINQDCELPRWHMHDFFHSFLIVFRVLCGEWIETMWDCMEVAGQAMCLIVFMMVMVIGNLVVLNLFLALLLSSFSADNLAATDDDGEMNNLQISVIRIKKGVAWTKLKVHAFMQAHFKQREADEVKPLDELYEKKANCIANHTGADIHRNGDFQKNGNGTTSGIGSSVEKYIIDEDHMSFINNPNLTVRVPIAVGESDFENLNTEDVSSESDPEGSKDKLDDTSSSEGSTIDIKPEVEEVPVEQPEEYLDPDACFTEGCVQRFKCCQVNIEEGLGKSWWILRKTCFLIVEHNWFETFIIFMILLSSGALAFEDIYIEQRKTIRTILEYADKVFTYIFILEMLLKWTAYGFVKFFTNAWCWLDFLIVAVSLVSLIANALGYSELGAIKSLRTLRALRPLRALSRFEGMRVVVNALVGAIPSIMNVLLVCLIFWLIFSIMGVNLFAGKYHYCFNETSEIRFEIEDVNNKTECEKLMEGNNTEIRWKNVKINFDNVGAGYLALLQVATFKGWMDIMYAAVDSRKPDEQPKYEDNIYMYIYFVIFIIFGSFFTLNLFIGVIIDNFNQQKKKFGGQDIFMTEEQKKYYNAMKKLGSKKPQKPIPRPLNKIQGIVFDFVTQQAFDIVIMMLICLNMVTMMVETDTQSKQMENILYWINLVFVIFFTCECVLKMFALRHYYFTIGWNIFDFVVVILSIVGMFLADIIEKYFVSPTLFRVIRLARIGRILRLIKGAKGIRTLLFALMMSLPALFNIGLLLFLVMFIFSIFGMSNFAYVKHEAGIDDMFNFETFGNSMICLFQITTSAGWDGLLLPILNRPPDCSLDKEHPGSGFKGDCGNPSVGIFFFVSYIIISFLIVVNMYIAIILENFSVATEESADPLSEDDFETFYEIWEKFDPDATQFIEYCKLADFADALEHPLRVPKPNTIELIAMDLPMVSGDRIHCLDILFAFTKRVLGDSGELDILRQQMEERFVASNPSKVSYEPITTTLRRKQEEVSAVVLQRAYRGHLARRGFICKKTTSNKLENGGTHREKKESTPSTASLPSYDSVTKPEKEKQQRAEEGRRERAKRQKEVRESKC
Method: IonWorks electrophysiological assays were conducted to profile compounds for activity on CHO human Nav1.6 ion channels expressing cells (Milipore) using a unique protocol to assess the close (tonic, Pulse 1) and inactivated state inhibition (Pulse 2). The membrane potential is initially held at a hyperpolarized potential (−120 mV) to drive sodium channels into the resting closed state. The membrane is then reset to 0 mV voltage (for 2.5 seconds) following a brief 5 ms hyperpolarization to partially remove inactivation of non-blocked sodium channels; a short 20 ms test voltage step is applied to assess the magnitude of inhibition.

[2] = secondary progressive MS patients; over 2 years; p=0.02; cited from earlier work
[3] = closed (tonic) state inhibition (Pulse 1), read-out: Nav1.6 Tonic
[4] = inactivated state inhibition (Pulse 2), read-out: Nav1.6 Inactivated

Row | Compound | pIC50 [1, 3] | pIC50 [1, 4] | deterioration of the timed 25-foot walk [2]
1 | CC1(C(=O)N2CCc3cccc(C(F)(F)F)c3C2)CCN(Cc2cccc(Oc3ccccc3)c2)C1 (racemic) [Example 13, (±) [3-methyl-1-(3-phenoxy-benzyl)-pyrrolidin-3-yl]-(8-trifluoromethyl-3,4-dihydro-1H-isoquinolin-2-yl)-methanone] | < 4.48 | 5.71 | –
2 | CCNC(=O)C1CCN(Cc2cccc(Oc3ccccc3)c2)C1 (racemic) [Example 18, (±) 1-(3-phenoxy-benzyl)-pyrrolidine-3-carboxylic acid ethylamide] | 4.64 | 6.21 | –
3 | COCCNC(=O)C1CCN(Cc2cccc(Oc3ccccc3)c2)C1 (racemic) [Example 19, (±) 1-(3-phenoxy-benzyl)-pyrrolidine-3-carboxylic acid (2-methoxy-ethyl)-amide] | 4.52 | 5.93 | –
4 | COC(=O)C1(C)CCN(Cc2cccc(OCC(C)C)c2)C1 (racemic) [Example 22, (±) 1-(3-isobutoxy-benzyl)-3-methyl-pyrrolidine-3-carboxylic acid methyl ester] | < 4.48 | 6.00 | –
5 | CC(C)COc1cccc(CN2CCC(C)(C(=O)NCc3ccccn3)C2)c1 (racemic) [Example 23, (±) 1-(3-isobutoxy-benzyl)-3-methyl-pyrrolidine-3-carboxylic acid (pyridin-2-ylmethyl)-amide] | < 4.48 | 6.35 | –
6 | CC(C)COc1cccc(CN2CCC(C)(C(=O)N(C)Cc3ccccn3)C2)c1 (racemic) [Example 25, (±) 1-(3-isobutoxy-benzyl)-3-methyl-pyrrolidine-3-carboxylic acid methyl-pyridin-2-ylmethyl-amide] | 4.70 | 6.12 | –
7 | CC1CN(C(=O)C2CCN(Cc3cccc(Oc4ccccc4)c3)C2)CCO1 (racemic) [Example 27, (±) (2-methyl-morpholin-4-yl)-[1-(3-phenoxy-benzyl)-pyrrolidin-3-yl]-methanone] | < 4.48 | 5.84 | –
8 | O=C(NCCc1ccccn1)C1CCN(Cc2cccc(Oc3ccccc3)c2)C1 (racemic) [Example 28, (±) 1-(3-phenoxy-benzyl)-pyrrolidine-3-carboxylic acid (2-pyridin-2-yl-ethyl)-amide] | 4.71 | 5.93 | –
9 | COC1CCCN(C(=O)C2CCN(Cc3cccc(Oc4ccccc4)c3)C2)C1 (racemic) [Example 29, (±) (3-methoxy-piperidin-1-yl)-[1-(3-phenoxy-benzyl)-pyrrolidin-3-yl]-methanone] | < 4.48 | 5.72 | –
10 | COC1CCN(C(=O)C2CCN(Cc3cccc(Oc4ccccc4)c3)C2)CC1 (racemic) [Example 30, (±) (4-methoxy-piperidin-1-yl)-[1-(3-phenoxy-benzyl)-pyrrolidin-3-yl]-methanone] | < 4.48 | 5.96 | –
11 | COC1CCN(C(=O)C2CCN(Cc3cccc(Oc4ccccc4)c3)C2)C1 (racemic) [Example 33, (±) (3-methoxy-pyrrolidin-1-yl)-[1-(3-phenoxy-benzyl)-Pyrrolidin-3-yl]-methanone] | < 4.48 | 5.82 | –
12 | O=C(NCc1ccccn1)C1CCN(Cc2cccc(Oc3ccccc3)c2)C1 (racemic) [Example 34, (±) 1-(3-phenoxy-benzyl)-pyrrolidine-3-carboxylic acid (Pyridin-2-ylmethyl)-amide] | 4.79 | 6.45 | –
13 | O=C(NCc1cccnc1)[C@@H]1CCN(Cc2cccc(Oc3ccccc3)c2)C1 [Example 24, (R)-1(3-phenoxy-benzyl)-pyrrolidine-3-carboxylic acid (pyridin-3-ylmethyl)-amide] | 4.52 | 5.89 | –
14 | Nc1nnc(-c2cccc(Cl)c2Cl)c(N)n1 [Lamotrigine] | – | – | reduced the deterioration of the timed 25-foot walk

Now from value to molecule, other results behind:

Row | pIC50 [1, 3] | pIC50 [1, 4] | Compound | deterioration of the timed 25-foot walk [2]
15 | 4.85 | 6.21 | Cc1ccccc1CNC(=O)C1(C)CCN(Cc2cccc(Oc3ccccc3)c2)C1 (racemic) [Example 9, (±) 3-methyl-1-(3-phenoxy-benzyl)-pyrrolidine-3-carboxylic acid 2-methyl-benzylamide] | –
16 | < 4.48 | 6.64 | CC1(C(=O)NCc2ccccn2)CCN(Cc2cccc(Oc3ccccc3)c2)C1 (racemic) [Example 12, (±) 3-methyl-1-(3-phenoxy-benzyl)-pyrrolidine-3-carboxylic acid (pyridin-2-ylmethyl)-amide] | –
17 | 4.52 | 6.33 | CN(Cc1ccccn1)C(=O)C1(C)CCN(Cc2cccc(Oc3ccccc3)c2)C1 (racemic) [Example 14, (±) 3-methyl-1-(3-phenoxy-benzyl)-pyrrolidine-3-carboxylic acid methyl-pyridin-2-ylmethyl-amide] | –
18 | 4.81 | 6.13 | CC1(C(=O)N2CCOCC2)CCN(Cc2cccc(Oc3ccccc3)c2)C1 (racemic) [Example 15, (±) [3-methyl-1-(3-phenoxy-benzyl)-pyrrolidin-3-yl]-morpholin-4-yl-methanone] | –
19 | 4.88 | 6.39 | CC1(C(=O)NCc2cccnc2)CCN(Cc2cccc(Oc3ccccc3)c2)C1 (racemic) [Example 16, (±) 3-methyl-1-(3-phenoxy-benzyl)-pyrrolidine-3-carboxylic acid (pyridin-3-ylmethyl)-amide] | –
20 | 4.79 | 6.03 | CC1(C(=O)NCc2ccncc2)CCN(Cc2cccc(Oc3ccccc3)c2)C1 (racemic) [Example 17, (±) 3-methyl-1-(3-phenoxy-benzyl)-pyrrolidine-3-carboxylic acid (pyridin-4-ylmethyl)-amide] | –
21 | 5.05 | 5.72 | CN1CCN(C(=O)C2(C)CCN(Cc3cccc(Oc4ccccc4)c3)C2)CC1 (racemic) [Example 20, (±) [3-methyl-1-(3-phenoxy-benzyl)-pyrrolidin-3-yl]-(4-methyl-piperazin-1-yl)-methanone] | –
22 | < 4.48 | 5.97 | CC1(C(=O)NCc2ccccn2)CCN(Cc2csc(-c3ccccc3)n2)C1 (racemic) [Example 21, (±) 3-methyl-1-(2-phenyl-thiazol-4-ylmethyl)-pyrrolidine-3-carboxylic acid (pyridin-2-ylmethyl)-amide] | –
23 | 4.97 | 6.11 | CC1(C(=O)NCCc2ccccn2)CCN(Cc2cccc(Oc3ccccc3)c2)C1 (racemic) [Example 26, (±) 3-methyl-1-(3-phenoxy-benzyl)-pyrrolidine-3-carboxylic acid (2-pyridin-2-v1-ethyl)-amide] | –
24 | < 4.48 | 5.76 | CC1(C(=O)N2Cc3cccnc3C2)CCN(Cc2cccc(Oc3ccccc3)c2)C1 (racemic) [Example 31, (±) (5,7-dihydro-pyrrolo[3,4-b]pyridin-6-yl)-[3-methyl-1-(3-phenoxy-benzyl)-pyrrolidin-3-yl]-methanone] | –
25 | < 4.48 | 5.78 | CC1(C(=O)N2CCc3cccnc3C2)CCN(Cc2cccc(Oc3ccccc3)c2)C1 (racemic) [Example 32, (±) (5,8-dihydro-6H-[1,7]naphthyridin-7-yl)-[3-methyl-1-(3-phenoxy-benzyl)-pyrrolidin-3-yl]-methanone] | –
26 | 4.70 | 6.09 | CCNC(=O)[C@@]1(C)CCN(Cc2cccc(Oc3ccccc3)c2)C1 (single isomer, unassigned) [Example 10] | –
27 | 4.80 | 6.08 | CCNC(=O)[C@]1(C)CCN(Cc2cccc(Oc3ccccc3)c2)C1 (single isomer, unassigned) [Example 11] | –
28 | 4.67 | 5.75 | CCNC(=O)C1(C)CCN(Cc2ccc(-c3ccccc3)cc2)C1 (stereo not shown) [Example 1] | –
29 | 4.81 | 6.00 | COCCNC(=O)C1(C)CCN(Cc2cccc(Oc3ccccc3)c2)C1 (stereo not shown) [Example 2] | –
30 | 5.03 | 5.99 | CCCNC(=O)C1(C)CCN(Cc2cccc(Oc3ccccc3)c2)C1 (stereo not shown) [Example 4] | –
31 | 4.51 | 6.11 | CCCNC(=O)C1(C)CCN(Cc2ccc(-c3ccccc3)o2)C1 (stereo not shown) [Example 5] | –
32 | 4.63 | 5.73 | CCCNC(=O)C1(C)CCN(Cc2ccc(OC)c3ccccc23)C1 (stereo not shown) [Example 6] | –
33 | < 4.48 | 5.79 | CCCNC(=O)C1(C)CCN(Cc2cccc(OC(=O)c3ccccc3)c2)C1 (stereo not shown) [Example 7] | –
34 | 4.83 | 5.99 | CCCNC(=O)C1(C)CCN(Cc2csc(-c3ccc(Cl)cc3)n2)C1 (stereo not shown) [Example 8] | –
